What was measured:
A549 cells = test: in vitro antiproliferation assay, A549 (lung); assay type: cell-based
Summary of the method: (§1)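 IC50 values came from standard antiproliferation testing in cultured tumour cells; the A549 and H1299 lines are of lung origin.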

H1299 cells = test: in vitro antiproliferation assay, H1299 (lung); assay type: cell-based
Summary of the method: as §1

[1] = A549 (lung) cells, antiproliferation
[2] = H1299 (lung) cells, antiproliferation
[3] = IC50 class against A549 (lung) tumor cells
[4] = IC50 class against H1299 (lung) tumor cells
[5] = Homo sapiens, IC50 class against A549 (lung) tumor cells
[6] = Homo sapiens, NCI-H1299, IC50 class against H1299 (lung) tumor cells

Structure (SMILES) | IC50 (A549 cells; [1]) [µM] | IC50 (H1299 cells; [2]) [µM] | other results
CNC(=O)c1ccc(Nc2ncc(F)c(N(C)c3cc(C)c(Cl)c(C)c3)n2)cc1Cl [compound 921] | ≤ 20 | ≤ 20 | 
COc1cc(Nc2nc(Nc3cccc(-c4ncco4)c3)ncc2F)cc(OC)c1OC [compound 932] | ≤ 20 | ≤ 20 | 
COc1ccc(Nc2ncc(F)c(Nc3ccc(OCCCN4CCOCC4)c(C)c3)n2)cc1OC [compound 945] | ≤ 20 | ≤ 20 | 
CCOC(=O)COc1cccc(Nc2ncc(F)c(Nc3cc(C)c(O)c(Cl)c3)n2)c1 [compound 952] | > 20 | ≤ 20 | 
CC(C)c1cccc(Nc2ncc(F)c(Nc3cccc(C(C)C)c3)n2)c1 [compound 968] | > 20 | ≤ 20 | 
COc1ccc(Nc2ncc(F)c(Nc3cccc(O)c3)n2)cc1OC [compound 969] | ≤ 20 | ≤ 20 | 
CNC(=O)COc1cccc(Nc2ncc(F)c(Nc3cccc(CN)c3)n2)c1 [compound 970] | ≤ 20 | ≤ 20 | 
NC(=O)COc1ccc(Nc2nc(Nc3cccc(O)c3)ncc2F)cc1 [compound 974] | ≤ 20 | ≤ 20 | 
O=C(COc1cccc(Nc2ncc(F)c(Nc3ccc(N4CCOCC4)cc3)n2)c1)NC1CC1 [compound 988] | ≤ 20 | ≤ 20 | 
COC(=O)COc1cccc(Nc2ncc(F)c(Nc3ccc(N4CCOCC4)cc3)n2)c1 [compound 989] | ≤ 20 | ≤ 20 | 
O=C(COc1cccc(Nc2ncc(F)c(Nc3ccc(N4CCOCC4)cc3)n2)c1)NC1CCC1 [compound 990] | ≤ 20 | ≤ 20 | 
CNC(=O)COc1cccc(Nc2ncc(F)c(Nc3ccc(N4CCOCC4)cc3)n2)c1 [compound 992] | > 20 | > 20 | 
CNC(=O)COc1cccc(Nc2ncc(F)c(Nc3ccc(N4CCN(C(=O)OC)CC4)cc3)n2)c1 [compound 993] | ≤ 20 | ≤ 20 | 
Fc1cnc(Nc2cccc(-c3ncco3)c2)nc1Nc1cccc(-c2ncco2)c1 [compound 995] | ≤ 20 | ≤ 20 | 
CCOC(=O)COc1cccc(Nc2ncc(F)c(Nc3cc(Cl)c(O)c(Cl)c3)n2)c1 [compound 999] | > 20 | > 20 | 
O=C(COc1cccc(Nc2ncc(F)c(Nc3cc(Cl)c(O)c(Cl)c3)n2)c1)N1CCNCC1 [compound 1001] | > 20 | > 20 | 
CC(C)(C)OC(=O)NCc1ccc(Nc2ncc(F)c(Nc3ccc(CNC(=O)OC(C)(C)C)cc3)n2)cc1 [compound 1012] | ≤ 20 | ≤ 20 | 
NCc1ccc(Nc2ncc(F)c(Nc3ccc(CN)cc3)n2)cc1 [compound 1013] | ≤ 20 | ≤ 20 | 
CC(C)(C)OC(=O)NCc1cccc(Nc2ncc(F)c(Nc3cccc(CNC(=O)OC(C)(C)C)c3)n2)c1 [compound 1015] | ≤ 20 | ≤ 20 | 
CCN(CC)CCNC(=O)c1ccc(Nc2ncc(F)c(Nc3ccc(OC)c(Cl)c3)n2)cc1 [compound 1021] | ≤ 20 | ≤ 20 | 
COc1ccc(Nc2nc(Nc3ccc(C(N)=O)cc3)ncc2F)cc1Cl [compound 1022] | ≤ 20 | ≤ 20 | 
COc1ccc(Nc2nc(Nc3ccc(CNC(=O)OC(C)(C)C)cc3)ncc2F)cc1Cl [compound 1023] | ≤ 20 | ≤ 20 | 
CNC(=O)COc1ccc(Nc2ncc(F)c(Nc3ccc(OC)c(Cl)c3)n2)cc1 [compound 1025] | > 20 | ≤ 20 | 

Structure (SMILES) | IC50 (A549 cells; [1]) [µM] | IC50 (H1299 cells; [2]) [µM] | other results
NC(=O)c1ccc(Nc2nc(Nc3cccc(O)c3)ncc2F)cc1 [compound 1026] | > 20 | ≤ 20 | 
NC(=O)c1ccc(Nc2nc(Nc3cc(Cl)c(O)c(Cl)c3)ncc2F)cc1 [compound 1027] | ≤ 20 | ≤ 20 | 
COc1ccc(Nc2ncc(F)c(Nc3ccc(C(N)=O)cc3)n2)cc1Cl [compound 1028] | ≤ 20 | ≤ 20 | 
NC(=O)c1ccc(Nc2ncc(F)c(Nc3ccc(C(N)=O)cc3)n2)cc1 [compound 1029] | > 20 | > 20 | 
CN(c1ccc(Cl)c(Cl)c1)c1nc(Nc2ccc(C(N)=O)cc2)ncc1F [compound 1030] | ≤ 20 | ≤ 20 | 
CCN(CC)CCNC(=O)c1ccc(Nc2ncc(F)c(N(C)c3ccc(Cl)c(Cl)c3)n2)cc1 [compound 1031] | ≤ 20 | ≤ 20 | 
COc1cc(Nc2nc(Nc3ccc(C(N)=O)cc3)ncc2F)ccc1Cl [compound 1032] | > 20 | > 20 | 
COc1ccc(Nc2nc(Nc3ccc(C(N)=O)c(Cl)c3)ncc2F)cc1Cl [compound 1033] | ≤ 20 | ≤ 20 | 
COc1cc(Nc2nc(Nc3ccc(C(N)=O)c(Cl)c3)ncc2F)ccc1Cl [compound 1034] | > 20 | ≤ 20 | 
CCN(CC)CCNC(=O)c1ccc(Nc2ncc(F)c(Nc3ccc(Cl)c(OC)c3)n2)cc1 [compound 1035] | ≤ 20 | ≤ 20 | 
NC(=O)c1ccc(Nc2ncc(F)c(Nc3ccccc3)n2)cc1 [compound 1036] | ≤ 20 | ≤ 20 | 
CNc1ncc(F)c(N(C)c2ccc3c(c2)OCCO3)n1 [compound 1038] |  |  | IC50 (A549 cells; [3]): ≤ 20 µM; IC50 (H1299 cells; [4]): ≤ 20 µM
CN(C)c1ncc(F)c(N(C)c2ccc3c(c2)OCCO3)n1 [compound 1039] |  |  | IC50 (A549 cells; [3]): ≤ 20 µM; IC50 (H1299 cells; [4]): ≤ 20 µM
CN(c1ccc2c(c1)OCCO2)c1nc(NCCO)ncc1F [compound 1040] |  |  | IC50 (A549 cells; [3]): ≤ 20 µM; IC50 (H1299 cells; [4]): ≤ 20 µM
CC(C)Nc1ncc(F)c(N(C)c2ccc3c(c2)OCCO3)n1 [compound 1041] |  |  | IC50 (A549 cells; [3]): ≤ 20 µM; IC50 (H1299 cells; [4]): ≤ 20 µM
CN(c1ccc2c(c1)OCCO2)c1nc(N(CCO)CCO)ncc1F [compound 1042] |  |  | IC50 (A549 cells; [3]): > 20 µM; IC50 (H1299 cells; [4]): ≤ 20 µM
C=CCNc1ncc(F)c(N(C)c2ccc3c(c2)OCCO3)n1 [compound 1043] |  |  | IC50 (A549 cells; [3]): ≤ 20 µM; IC50 (H1299 cells; [4]): ≤ 20 µM
CNc1ncc(F)c(Nc2ccc3c(c2)OCCO3)n1 [compound 1044] |  |  | IC50 (A549 cells; [3]): > 20 µM; IC50 (H1299 cells; [4]): > 20 µM
COc1ccc(Nc2ncc(F)c(Nc3ccc4c(c3)OCCO4)n2)c(C)c1 [compound 1046] |  |  | IC50 (A549 cells; [3]): ≤ 20 µM; IC50 (H1299 cells; [4]): ≤ 20 µM
COc1ccc(C)c(Nc2ncc(F)c(Nc3ccc4c(c3)OCCO4)n2)c1 [compound 1047] |  |  | IC50 (A549 cells; [3]): ≤ 20 µM; IC50 (H1299 cells; [4]): ≤ 20 µM
Cc1ccc(F)c(Nc2ncc(F)c(Nc3ccc4c(c3)OCCO4)n2)c1 [compound 1048] |  |  | IC50 (A549 cells; [3]): ≤ 20 µM; IC50 (H1299 cells; [4]): ≤ 20 µM
COc1cc(Nc2ncc(F)c(Nc3ccc4c(c3)OCCO4)n2)c(OC)cc1Cl [compound 1049] |  |  | IC50 (A549 cells; [3]): ≤ 20 µM; IC50 (H1299 cells; [4]): ≤ 20 µM
COc1c(C)cc(Nc2ncc(F)c(Nc3cccc(Nc4ncc[nH]4)c3)n2)cc1C [compound 1050] |  |  | IC50 (A549 cells; [5]): ≤ 20 µM; IC50 (H1299 cells; [6]): ≤ 20 µM

Structure (SMILES) | IC50 (A549 cells; [1]) [µM] | IC50 (H1299 cells; [2]) [µM] | other results
COc1ccc(Nc2ncc(F)c(Nc3cccc(Nc4ncc[nH]4)c3)n2)cc1F [compound 1051] |  |  | IC50 (A549 cells; [5]): ≤ 20 µM; IC50 (H1299 cells; [6]): ≤ 20 µM
Cc1cc(C)cc(Nc2ncc(F)c(Nc3cccc(Nc4ncc[nH]4)c3)n2)c1 [compound 1052] |  |  | IC50 (A549 cells; [5]): ≤ 20 µM; IC50 (H1299 cells; [6]): ≤ 20 µM
COc1cc(Nc2ncc(F)c(Nc3cccc(Nc4ncc[nH]4)c3)n2)cc(OC)c1 [compound 1053] |  |  | IC50 (A549 cells; [5]): ≤ 20 µM; IC50 (H1299 cells; [6]): ≤ 20 µM
Fc1cnc(Nc2cccc(N3CCOCC3)c2)nc1Nc1cccc(Nc2ncc[nH]2)c1 [compound 1054] |  |  | IC50 (A549 cells; [5]): ≤ 20 µM; IC50 (H1299 cells; [6]): ≤ 20 µM
CCOC(=O)N1CCN(c2cccc(Nc3ncc(F)c(Nc4cccc(Nc5ncc[nH]5)c4)n3)c2)CC1 [compound 1055] |  |  | IC50 (A549 cells; [5]): > 20 µM; IC50 (H1299 cells; [6]): > 20 µM
CN1CCN(c2ccc(Nc3ncc(F)c(Nc4cccc(Nc5ncc[nH]5)c4)n3)cc2)CC1 [compound 1056] |  |  | IC50 (A549 cells; [5]): > 20 µM; IC50 (H1299 cells; [6]): > 20 µM
COC(=O)N1CCN(c2ccc(Nc3ncc(F)c(Nc4cccc(Nc5ncc[nH]5)c4)n3)cc2)CC1 [compound 1057] |  |  | IC50 (A549 cells; [5]): > 20 µM; IC50 (H1299 cells; [6]): > 20 µM
CC(=O)N1CCN(c2ccc(Nc3ncc(F)c(Nc4cccc(Nc5ncc[nH]5)c4)n3)cc2)CC1 [compound 1058] |  |  | IC50 (A549 cells; [5]): > 20 µM; IC50 (H1299 cells; [6]): > 20 µM
CC(=O)N1CCN(c2cccc(Nc3ncc(F)c(Nc4cccc(Nc5ncc[nH]5)c4)n3)c2)CC1 [compound 1059] |  |  | IC50 (A549 cells; [5]): > 20 µM; IC50 (H1299 cells; [6]): > 20 µM
COc1cccc(Nc2ncc(F)c(Nc3ccc4c(c3)NC(=O)CO4)n2)c1C [compound 1062] |  |  | IC50 (A549 cells; A549 (lung) cells): ≤ 20 µM; IC50 (H1299 cells; H1299 (lung) cells): ≤ 20 µM
Cc1c(O)cccc1Nc1ncc(F)c(Nc2ccc3c(c2)NC(=O)CO3)n1 [compound 1063] |  |  | IC50 (A549 cells; A549 (lung) cells): ≤ 20 µM; IC50 (H1299 cells; H1299 (lung) cells): ≤ 20 µM
Cc1c(O)cccc1Nc1ncc(F)c(Nc2ccc3c(c2)NC(=O)C(C)(C)O3)n1 [compound 1064] |  |  | IC50 (A549 cells; A549 (lung) cells): ≤ 20 µM; IC50 (H1299 cells; H1299 (lung) cells): ≤ 20 µM
COc1cccc(Nc2ncc(F)c(Nc3ccc4c(c3)NC(=O)C(C)(C)O4)n2)c1C [compound 1065] |  |  | IC50 (A549 cells; A549 (lung) cells): ≤ 20 µM; IC50 (H1299 cells; H1299 (lung) cells): > 20 µM
CCCn1ncc2cc(Nc3ncc(F)c(Nc4ccc(OC)c(Cl)c4)n3)ccc21 [compound 1074] |  |  | IC50 (A549 cells; A549 (lung) cells): ≤ 20 µM; IC50 (H1299 cells; H1299 (lung) cells): ≤ 20 µM
CCCn1ncc2cc(Nc3ncc(F)c(Nc4ccc(Cl)c(Cl)c4)n3)ccc21 [compound 1075] |  |  | IC50 (A549 cells; A549 (lung) cells): > 20 µM; IC50 (H1299 cells; H1299 (lung) cells): > 20 µM
CCCn1ncc2cc(Nc3ncc(F)c(Nc4ccc5c(c4)NC(=O)C(C)(C)O5)n3)ccc21 [compound 1076] |  |  | IC50 (A549 cells; A549 (lung) cells): ≤ 20 µM; IC50 (H1299 cells; H1299 (lung) cells): ≤ 20 µM
CCCn1ncc2ccc(Nc3ncc(F)c(Nc4ccc(F)c(OC)c4)n3)cc21 [compound 1077] |  |  | IC50 (A549 cells; A549 (lung) cells): ≤ 20 µM; IC50 (H1299 cells; H1299 (lung) cells): ≤ 20 µM
CCCn1ncc2ccc(Nc3ncc(F)c(Nc4ccc5c(c4)NC(=O)C(C)(C)O5)n3)cc21 [compound 1080] |  |  | IC50 (A549 cells; A549 (lung) cells): ≤ 20 µM; IC50 (H1299 cells; H1299 (lung) cells): ≤ 20 µM
CCCCn1ncc2cc(Nc3ncc(F)c(Nc4ccc(OC)c(Cl)c4)n3)ccc21 [compound 1082] |  |  | IC50 (A549 cells; A549 (lung) cells): ≤ 20 µM; IC50 (H1299 cells; H1299 (lung) cells): > 20 µM
CCCCn1ncc2cc(Nc3ncc(F)c(Nc4ccc(Cl)c(Cl)c4)n3)ccc21 [compound 1083] |  |  | IC50 (A549 cells; A549 (lung) cells): ≤ 20 µM; IC50 (H1299 cells; H1299 (lung) cells): ≤ 20 µM
CCCCn1ncc2cc(Nc3ncc(F)c(Nc4ccc5c(c4)NC(=O)C(C)(C)O5)n3)ccc21 [compound 1084] |  |  | IC50 (A549 cells; A549 (lung) cells): ≤ 20 µM; IC50 (H1299 cells; H1299 (lung) cells): ≤ 20 µM

Reference: patent publication US8809341B2, “2,4-pyrimidinediamine compounds and uses as anti-proliferative agents” (Rigel Pharmaceuticals, Inc., priority 2003, dated 2014)
